Counter-ions that a name gives are not always drawn.

This experiment has as its target T1, recombinant human GR (Homo sapiens, UniProt P04150).
T1 construct: purchased Panvera/Invitrogen P2812 (kit P2893)
T1 sequence (P04150 1-777): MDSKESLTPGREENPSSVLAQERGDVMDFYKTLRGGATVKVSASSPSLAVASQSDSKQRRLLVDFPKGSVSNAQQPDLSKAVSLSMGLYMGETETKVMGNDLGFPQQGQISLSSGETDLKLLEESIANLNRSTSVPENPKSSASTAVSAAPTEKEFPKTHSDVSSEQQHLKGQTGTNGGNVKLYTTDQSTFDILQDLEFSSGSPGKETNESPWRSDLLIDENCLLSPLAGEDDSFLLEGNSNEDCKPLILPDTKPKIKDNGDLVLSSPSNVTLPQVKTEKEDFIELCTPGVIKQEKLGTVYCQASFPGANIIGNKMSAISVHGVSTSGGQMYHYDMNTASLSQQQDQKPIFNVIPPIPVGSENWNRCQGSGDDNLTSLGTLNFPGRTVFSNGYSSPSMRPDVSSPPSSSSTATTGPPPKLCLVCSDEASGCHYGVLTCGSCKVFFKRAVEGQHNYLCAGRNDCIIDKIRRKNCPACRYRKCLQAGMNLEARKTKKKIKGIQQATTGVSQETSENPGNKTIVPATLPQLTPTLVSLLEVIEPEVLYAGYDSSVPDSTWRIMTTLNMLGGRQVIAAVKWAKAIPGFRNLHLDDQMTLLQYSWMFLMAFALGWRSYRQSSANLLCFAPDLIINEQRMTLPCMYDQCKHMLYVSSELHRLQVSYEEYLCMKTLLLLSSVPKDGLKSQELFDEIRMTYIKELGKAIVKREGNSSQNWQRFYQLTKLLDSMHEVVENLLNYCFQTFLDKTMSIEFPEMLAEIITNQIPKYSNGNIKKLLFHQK
In words: Human Glucocorticoid Receptor (GR) Assay, fluorescence polarization. Particulars: GS Red tracer, incubated 2 h at r.t., XLfit model 205, read-out: GRhuFL_FP_v2 Mean IC50. It is filed as binding. The procedure, abridged: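 Fluorescence polarization kit assay: recombinant GR and GS Red fluorescent ligand with Stabilizing Peptide and DTT in potassium phosphate/sodium molybdate/EDTA screening buffer. Plates incubated 2 h in the dark at r.t.; DMSO served as 0% and dexamethasone as 100% control.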
In general terms: In fluorescence polarisation assays a small probe gives low polarisation when free and higher when bound to something large.

By IC50 is commonly meant the concentration that inhibits the measured activity by half. On to `C[C@H](NC(=O)C(F)(F)F)[C@H](Sc1ccc2c(cnn2-c2ccc(F)cc2)c1)c1ccccc1` [Example 103, 2,2,2-trifluoro-N-((1R,2S)-1-(1-(4-fluorophenyl)-1H-indazol-5-ylthio)-1-phenylpropan-2-yl)acetamide], for which the IC50 was determined as 2.6 nM.

`Cc1cccc([C@@H](Oc2ccc3c(cnn3-c3ccc(F)cc3)c2)[C@H](C)NC(=O)C(F)(F)F)c1` [Example 24, 2,2,2-trifluoro-N-[(1R,2S)-1-[1(4-fluorophenyl)indazol-5-yl]oxy-1-(3-methylphenyl)propan-2-yl]acetamide]: the IC50 worked out at 3.2 nM.

Take `C[C@H](NC(=O)C1(C)CC1)[C@H](Oc1ccc2c(cnn2-c2ccc(F)cc2)c1)c1ccc2c(c1)OCCO2` [Example 124, N-((1R,2S)-1-(2,3-dihydrobenzo[b][1,4]dioxin-6-yl)-1-(1-(4-fluorophenyl)-1H-indazol-5-yloxy)propan-2-yl)-1-methylcyclopropanecarboxamide]: the IC50 came out at 2.7 nM. For `COCC(=O)N[C@@H](C)[C@H](Oc1ccc2c(cnn2-c2ccc(F)cc2)c1)c1cc(C)ccc1C` [Example 260, N-[(1R,2S)-1-(2,5-dimethylphenyl)-1-[1-(4-fluorophenyl)indazol-5-yl]oxy-propan-2-yl]-2-methoxy-acetamide], the IC50 came to 14 nM. Turning to `C[C@H](NC(=O)C(F)(F)F)[C@H](Oc1ccc2c(cnn2-c2ccc(Cl)nn2)c1)c1ccccc1` [Example 119, N-{2-[1-(6-Chloro-pyridazin-3-yl)-1H-indazol-5-yloxy]-1-methyl-2-phenyl-ethyl}-2,2,2-trifluoro-acetamide], the IC50 turned out to be 3.1 nM. `CC(=O)N[C@@H](C)[C@H](Oc1cc2cnn(-c3ccc(F)cc3)c2cc1Cl)c1ccc(F)cc1` (single isomer, unassigned) [Example 102, N-[(1R*,2S*)-1-[6-chloro-1-(4-fluorophenyl)indazol-5-yl]oxy-1-(4-fluorophenyl)propan-2-yl]acetamide]: the half-inhibitory concentration (IC50) turned out to be 2.5 nM. Turning to `COc1cccc([C@@H](Oc2ccc3c(cnn3-c3ccc(F)cc3)c2)[C@H](C)NC(=O)c2cc(C#N)cs2)c1` [Example 275, 4-cyano-N-[(1R,2S)-1-[1-(4-fluorophenyl)indazol-5-yl]oxy-1-(3-methoxyphenyl)propan-2-yl]thiophene-2-carboxamide], the 50% inhibitory concentration (IC50) was determined as 4 nM. Take `COc1ccccc1[C@@H](Oc1ccc2c(cnn2-c2ccc(F)cc2)c1)[C@H](C)NC(=O)C(F)(F)F` [Example 164, 2,2,2-trifluoro-N-[(1R,2S)-1-[1-(4-fluorophenyl)indazol-5-yl]oxy-1-(2-methoxyphenyl)propan-2-yl]acetamide]: the concentration for half-maximal inhibition (IC50) turned out to be 4.2 nM. Consider `COc1c(C)cc([C@@H](Oc2ccc3c(cnn3-c3ccc(F)cc3)c2)[C@H](C)NC(=O)C(C)(F)F)cc1C` [Example 236, 2,2-difluoro-N-[(1R,2S)-1-[1-(4-fluorophenyl)indazol-5-yl]oxy-1-(4-methoxy-3,5-dimethyl-phenyl)propan-2-yl]propanamide], for which the IC50 came out at 7.2 nM. To `COc1cccc([C@@H](Oc2ccc3c(cnn3-c3ccc(F)cc3)c2)[C@H](C)NC(=O)[C@@H](C)N)c1` [Example 303, (R)-2-amino-N-((1R,2S)-1-(1-(4-fluorophenyl)-1H-indazol-5-yloxy)-1-(3-methoxyphenyl)propan-2-yl)propanamide trifluoroacetic acid salt] belongs 5 nM; to `Cc1ccc([C@@H](Oc2ccc3c(cnn3-c3ccc(F)cc3)c2)[C@H](C)NC(=O)C(F)(F)F)cc1F` [Example 151, 2,2,2-trifluoro-N-[(1R,2S)-1-(3-fluoro-4-methyl-phenyl)-1-[1-(4-fluorophenyl)indazol-5-yl]oxy-propan-2-yl]acetamide], 32 nM. In the case of `C[C@H](O)C(=O)N[C@@H](C)[C@H](Oc1ccc2c(cnn2-c2ccc(F)cc2)c1)c1ccccc1` [Example 48, (2S)-N-[(1R,2S)-1-[1-(4-fluorophenyl)indazol-5-yl]oxy-1-phenyl-propan-2-yl]-2-hydroxy-propanamide], the IC50 is 2.9 nM.

In the case of `C[C@H](NC(=O)C(C)(C)C)[C@@H](Cc1ccccc1)Oc1ccc2c(cnn2-c2ccc(F)cc2)c1` [Example 73, N-[(2S,3R)-3-[1-(4-Fluorophenyl)indazol-5-yl]oxy-4-phenyl-butan-2-yl]-2,2-dimethyl-propanamide], the IC50 was found to be 5.1 nM. As to `COc1cccc([C@@H](Oc2ccc3c(cnn3-c3ccc(F)cc3)c2)[C@H](C)NC(=O)c2nc3ccccc3s2)c1` [Example 297, N-[(1R,2S)-1-[1-(4-fluorophenyl)indazol-5-yl]oxy-1-(3-methoxyphenyl)propan-2-yl]benzothiazole-2-carboxamide], the IC50 is 8.6 nM. Next, `C[C@H](NC(=O)C(F)(F)F)[C@@H](COc1ccc(F)cc1F)Oc1ccc2c(cnn2-c2ccc(F)cc2)c1` [Example 305, N-((2S,3S)-4-(2,4-difluorophenoxy)-3-(1-(4-fluorophenyl)-1H-indazol-5-yloxy)butan-2-yl)-2,2,2-trifluoroacetamide]: 8.3 nM; `COc1cc([C@@H](Oc2ccc3c(cnn3-c3ccc(F)cc3)c2)[C@H](C)NC(=O)C(F)(F)F)ccc1SC` [Example 308, 2,2,2-trifluoro-N-((1R,2S)-1-(1-(4-fluorophenyl)-1H-indazol-5-yloxy)-1-(3-methoxy-4-(methylthio)phenyl)propan-2-yl)acetamide]: 6.9 nM; `COc1ccccc1[C@@H](Oc1ccc2c(cnn2-c2ccc(F)cc2)c1)[C@H](C)NC(=O)c1ncc(C)s1` [Example 209, N-[(1R,2S)-1-[1-(4-fluorophenyl)indazol-5-yl]oxy-1-(2-methoxyphenyl)propan-2-yl]-5-methyl-1,3-thiazole-2-carboxamide]: 4.1 nM. Take `C[C@H](NC(=O)CCCN)[C@H](Oc1ccc2c(cnn2-c2ccc(F)cc2)c1)c1ccccc1` [Example 28, 4-Amino-N-[(1R,2S)-1-[1-(4-fluorophenyl)indazol-5-yl]oxy-1-phenyl-propan-2-yl]butanamide]: the concentration for half-maximal inhibition (IC50) amounted to 25 nM.

Take `COC(=O)c1ccc(-n2ncc3cc(O[C@H](c4ccccc4)[C@H](C)NC(=O)c4ccco4)ccc32)cc1` [Example 116, Methyl 4-(5-{(1R,2S)-2-[(2-furylcarbonyl)amino]-1-phenylpropoxy}-1H-indazol-1-yl)benzoate]: the IC50 was found to be 7.7 nM. Consider `COc1ccc([C@@H](Oc2ccc3c(cnn3-c3ccc(F)cc3)c2)[C@H](C)NC(=O)C(C)(C)C)cc1F` [Example 177, N-[(1R,2S)-1-(3-fluoro-4-methoxy-phenyl)-1-[1-(4-fluorophenyl)indazol-5-yl]oxy-propan-2-yl]-2,2-dimethyl-propanamide], for which the half-inhibitory concentration (IC50) is 3.9 nM. Next, `C[C@H](NC(=O)CO)[C@@H](Cc1ccccc1)Oc1ccc2c(cnn2-c2ccc(F)cc2)c1` [Example 74, N-[(2S,3R)-3-[1-(4-Fluorophenyl)indazol-5-yl]oxy-4-phenyl-butan-2-yl]-2-hydroxy-acetamide]: 3.7 nM. Next, `C[C@H](NC(=O)NCc1ccco1)[C@H](Oc1ccc2c(cnn2-c2ccc(F)cc2)c1)c1ccccc1` [Example 105, 1-{(1S,2R)-2-{[1-(4-Fluorophenyl)-1H-indazole-5-yl]oxy}-1-methyl-2-phenylethyl}-3-(2-furylmethyl)urea]: 3.2 nM; `CC[C@H](NC(=O)CO)[C@H](Oc1ccc2c(cnn2-c2ccc(F)cc2)c1)c1cccc(OC)c1` [Example 97, N-((1R,2S)-1-(1-(4-fluorophenyl)-1H-indazol-5-yloxy)-1-(3-methoxyphenyl)butan-2-yl)-2-hydroxyacetamide]: 3.3 nM; `C[C@H](NC(=O)C(C)(F)F)[C@H](Oc1ccc2c(cnn2-c2ccc(F)cc2)c1)c1cccc(F)c1` [Example 230, 2,2-difluoro-N-[(1R,2S)-1-(3-fluorophenyl)-1-[1-(4-fluorophenyl)indazol-5-yl]oxy-propan-2-yl]propanamide]: 4.8 nM. `C[C@H](NC(=O)CO)[C@H](Oc1ccc2c(cnn2-c2ccc(F)cc2)c1)c1ccc2c(c1)OCCO2` [Example 123, N-((1R,2S)-1-(2,3-dihydrobenzo[b][1,4]dioxin-6-yl)-1-(1-(4-fluorophenyl)-1H-indazol-5-yloxy)propan-2-yl)-2-hydroxyacetamide]: the half-maximal inhibitory concentration (IC50) was determined as 4.2 nM. With `COCC(=O)N[C@@H](C)[C@H](Oc1ccc2c(cnn2-c2ccc(F)cc2)c1)c1cccc(F)c1` [Example 263, N-[(1R,2S)-1-(3-fluorophenyl)-1-[1-(4-fluorophenyl)indazol-5-yl]oxy-propan-2-yl]-2-methoxy-acetamide], the IC50 was 4.2 nM. To `C[C@H](NC(=O)C(F)(F)F)[C@H](Oc1ccc2c(cnn2-c2ccc(F)cc2)c1)c1cccc(F)c1` [Example 152, 2,2,2-trifluoro-N-[(1R,2S)-1-(3-fluorophenyl)-1-[1-(4-fluorophenyl)indazol-5-yl]oxy-propan-2-yl]acetamide] belongs 3.6 nM.
